# Measurements published in patent US8383128B2, “Method of protecting plant(s) and a process thereof” (priority 2008, dated 2013).
# Tested on: Helicoverpa armigera larvae (third instar)
# Assay: Bioassay of meroterpenoid using H. armigera larvae (cotton leaf dip feeding)
# Type: in vivo
# Conditions: for Mortality (%) / Survival (%): treated cotton leaves, recorded up to 6 days
# Excerpt: The cotton Bollworm, Helicoverpa armigera is considered as one of the major threats to present day intensive agriculture. […] Cotton leaves were surface sterilized with 0.5% sodium hypochlorite, rinsed in sterile water and shade dried. The leaves were dipped in respective concentration of the insecticide for 30 seconds and then they were drained and dried at room temperature. The turgidity was maintained by surrounding the petiole with cotton wool saturated with water. The petioles of the leaves with cotton swab were kept immersed in water and were used control. The entire setup was kept enclosed in mylar film cage and Helicoverpa armigera larvae (third instar) of 30-40 milligrams weight were allowed to feed. Mortality rate was recorded at 24 hours intervals up to 6 days.
smiles,measurement,setting,value
"COc1ccc(-c2cc3c(c(=O)o2)C[C@@]2(O)[C@@]4(C)C(=O)[C@@]5(OC)C(=O)O[C@]4(CC[C@@]2(C)O3)C5(C)C)cc1 [Terreulactone A, terreulactone A]",Mortality (%),2.5 μg terreulactone A,52.5%
same,Survival (%),2.5 μg terreulactone A,47.5%
same,Mortality (%),5.0 μg terreulactone A,62.5%
same,Survival (%),5.0 μg terreulactone A,37.5%
same,Mortality (%),10 μg terreulactone A,82.5%
same,Survival (%),10 μg terreulactone A,17.5%
same,mortality rate of the larval pests (in words),larval pests fed on treated plant or plant parts,increased the mortality rate
